{"source": "patent US20260325605A1", "about": "“INHIBITORS” (Zealand Pharma A/S, priority 2022, published 2026)", "key": {"[1]": {"system": "T-cell activation in rat whole blood", "test": "Example 4: IL-17A release in thapsigargin stimulated rat whole blood", "format": "cell-based, rat (Lewis or Sprague-Dawley)", "conditions": "24 Hr, at least 2 replicates, unit inferred, read-out: IC50 (inhibition of IL-17A release)", "procedure,_shortened": "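Heparinised whole blood from naïve Lewis or Sprague-Dawley rats preincubated ≥5 min at RT with peptide, then stimulated with thapsigargin (40 μM stock added as one quarter of well volume) for 24 h at 37 °C. Supernatant IL-17A measured by ELISA; IC50 from curves normalised to stimulated and unstimulated controls, ≥2 replicates.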"}, "[2]": {"system": "KLH-induced DTH ear swelling in rats", "test": "Example 10: Maximal effective dose in KLH-induced DTH model", "format": "in vivo, rat (Lewis)", "experimental": "(§1) Healthy male Lewis rats aged 8-9 weeks were immunized on day 0 with 200 μL keyhole limpet hemocyanin (KLH) (from Sigma, cat.no. H7017) (4 mg/mL) emulsified in complete Freund's adjuvant (CFA) (Difco, cat.no. 263810) subcutaneously (SC) at the base of the tail.\n(§2) To elicit a KLH-specific T cell-mediated local inflammation, rats were challenged intradermally at indicated timepoints (days 7, 9, 11 or 13 post-immunisation) with 40 μL KLH/NaCl 0.9% (2 mg/mL) in the left ear. Ear edemas were measured after 24-48 hrs and the right ear that was left untreated served as control. A schematic overview of the protocol is depicted in FIG. 1. […]\n(§3) This study was conducted as described in example 8 with the difference that the rats were only challenged intradermally at days 7 or 11 post-immunisation (i.e. day 1 and day 5 after treatment) with 40 μL KLH/NaCl 0.9% (2 mg/mL) in the left ear. A schematic overview of the protocol is depicted in FIG. 5.\nThe doses of Kv1.3 inhibitor treatment able to reduce the DTH ear swelling response was investigated by comparing the response in rats (n=8/group) treated with vehicle to that of rats treated with different doses of peptide 100. Vehicle or peptide 100 dissolved in vehicle was administered SC (2 mL/kg) on day 6 post-immunisation. The test dose of Kv1.3 inhibitor was 10, 100, 300 or 700 nmol/kg. Test vehicle was 10 mM phosphate, 0.8% w/v NaCl, 0.05% w/v polysorbate20, pH 6.\nAs readout of efficacy, the thickness of the induced ear 24 hrs and 48 hrs after respective ear challenge was measured and compared to vehicle control. Ear thickness 24 hrs after challenge is shown in Table 13 and FIG. 6 and ear thickness 48 hrs after challenge is shown in Table 14 and FIG. 7."}, "[3]": {"system": "KLH-induced DTH ear swelling in rats", "test": "Example 11: Minimal effective dose in KLH-induced DTH model", "format": "in vivo, rat (Lewis)", "experimental": "as §1, §2, §3\nThe doses of Kv1.3 inhibitor treatment able to reduce the DTH ear swelling response was investigated by comparing the response in rats (n=8/group) treated with vehicle to that of rats treated with different doses of peptide 100. Vehicle or peptide 100 dissolved in vehicle was administered SC (2 mL/kg) on day 6. The test dose of Kv1.3 inhibitor was 1, 3, 10, 30 or 100 nmol/kg. Test vehicle was 10 mM phosphate, 0.8% w/v NaCl, 0.05% w/v polysorbate20, pH 6.\nAs readout of efficacy, the thickness of the induced ear 24 hrs and 48 hrs after respective ear challenge was measured and compared to vehicle control. Ear thickness 24 hrs after challenge is shown in Table 15 and FIG. 8 and ear thickness 48 hrs after challenge is shown in Table 16 and FIG. 9."}, "[4]": {"conditions": "24 hrs post-challenge, day 2 post-treatment, 100 nmol/kg SC"}, "[5]": {"conditions": "24 hrs post-challenge, day 6 post-treatment, 10 nmol/kg SC"}, "[6]": {"conditions": "24 hrs post-challenge, day 6 post-treatment, 100 nmol/kg SC"}, "[7]": {"conditions": "48 hrs post-challenge, day 3 post-treatment, 100 nmol/kg SC"}, "[8]": {"conditions": "48 hrs post-challenge, day 7 post-treatment, 10 nmol/kg SC"}, "[9]": {"conditions": "48 hrs post-challenge, day 7 post-treatment, 100 nmol/kg SC"}}}
{"substance": "H-P[Nle]E[Nle]RC(1)SASVEC(2)KQKC(3)LAAIGSIFGKC(1)[Nle]NKKC(2)KC(3)YPR-OH [Peptide 100]", "values": [{"measurement": "IC50", "setting": "[1]", "value": 0.43, "unit": "nM"}, {"measurement": "Mean ear thickness of KLH-induced ear", "setting": "[2]; 10 nmol/kg s.c., challenge day 11, 24 hrs post-challenge, vehicle 0.848, p=0.0495", "value": "0.807±0.025", "unit": "mm"}, {"measurement": "Mean ear thickness of KLH-induced ear", "setting": "[2]; 10 nmol/kg s.c., challenge day 11, 48 hrs post-challenge, vehicle 0.819, p=0.0009", "value": "0.761±0.025", "unit": "mm"}, {"measurement": "Mean ear thickness of KLH-induced ear", "setting": "[2]; 100 nmol/kg s.c., challenge day 11, 24 hrs post-challenge, vehicle 0.848, p=0.0015", "value": "0.777±0.019", "unit": "mm"}, {"measurement": "Mean ear thickness of KLH-induced ear", "setting": "[2]; 100 nmol/kg s.c., challenge day 11, 48 hrs post-challenge, vehicle 0.819, p<0.0001", "value": "0.713±0.034", "unit": "mm"}, {"measurement": "Mean ear thickness of KLH-induced ear", "setting": "[2]; 300 nmol/kg s.c., challenge day 11, 24 hrs post-challenge, vehicle 0.848, p=0.0005", "value": "0.772±0.009", "unit": "mm"}, {"measurement": "Mean ear thickness of KLH-induced ear", "setting": "[2]; 300 nmol/kg s.c., challenge day 11, 48 hrs post-challenge, vehicle 0.819, p<0.0001", "value": "0.684±0.016", "unit": "mm"}, {"measurement": "Mean ear thickness of KLH-induced ear", "setting": "[2]; 700 nmol/kg s.c., challenge day 11, 24 hrs post-challenge, vehicle 0.848, p=0.0007", "value": "0.771±0.018", "unit": "mm"}, {"measurement": "Mean ear thickness of KLH-induced ear", "setting": "[2]; 700 nmol/kg s.c., challenge day 11, 48 hrs post-challenge, vehicle 0.819, p<0.0001", "value": "0.671±0.011", "unit": "mm"}, {"measurement": "Mean ear thickness of KLH-induced ear", "setting": "[2]; [4]", "value": 0.704, "unit": "mm"}, {"measurement": "Mean ear thickness of KLH-induced ear", "setting": "[2]; [5]", "value": 0.807, "unit": "mm"}, {"measurement": "Mean ear thickness of KLH-induced ear", "setting": "[2]; [6]", "value": 0.777, "unit": "mm"}, {"measurement": "Mean ear thickness of KLH-induced ear", "setting": "[2]; 24 hrs post-challenge, day 6 post-treatment, 300 nmol/kg SC", "value": 0.772, "unit": "mm"}, {"measurement": "Mean ear thickness of KLH-induced ear", "setting": "[2]; 24 hrs post-challenge, day 6 post-treatment, 700 nmol/kg SC", "value": 0.771, "unit": "mm"}, {"measurement": "Mean ear thickness of KLH-induced ear", "setting": "[2]; [7]", "value": 0.652, "unit": "mm"}, {"measurement": "Mean ear thickness of KLH-induced ear", "setting": "[2]; [8]", "value": 0.761, "unit": "mm"}, {"measurement": "Mean ear thickness of KLH-induced ear", "setting": "[2]; [9]", "value": 0.713, "unit": "mm"}, {"measurement": "Mean ear thickness of KLH-induced ear", "setting": "[2]; 48 hrs post-challenge, day 7 post-treatment, 300 nmol/kg SC", "value": 0.684, "unit": "mm"}, {"measurement": "Mean ear thickness of KLH-induced ear", "setting": "[2]; 48 hrs post-challenge, day 7 post-treatment, 700 nmol/kg SC", "value": 0.671, "unit": "mm"}, {"measurement": "dose with which a maximal effect is obtained", "setting": "[2]; KLH-induced DTH model, s.c.", "value": 300, "unit": "nmol/kg"}, {"measurement": "Mean ear thickness of KLH-induced ear", "setting": "[2]; s.c. day 6, dose not given, challenge day 7, 24 hrs post-challenge, vehicle 0.721, p=0.1216", "value": "0.704±0.018", "unit": "mm"}, {"measurement": "Mean ear thickness of KLH-induced ear", "setting": "[2]; s.c. day 6, dose not given, challenge day 7, 48 hrs post-challenge, vehicle 0.694, p=0.0008", "value": "0.652±0.026", "unit": "mm"}, {"measurement": "Mean ear thickness of KLH-induced ear", "setting": "[3]; 1 nmol/kg s.c., challenge day 11, 24 hrs post-challenge, vehicle 0.902, p=0.0872", "value": "0.872±0.037", "unit": "mm"}, {"measurement": "Mean ear thickness of KLH-induced ear", "setting": "[3]; 1 nmol/kg s.c., challenge day 11, 48 hrs post-challenge, vehicle 0.876, p=0.1953", "value": "0.854±0.038", "unit": "mm"}, {"measurement": "Mean ear thickness of KLH-induced ear", "setting": "[3]; 3 nmol/kg s.c., challenge day 11, 24 hrs post-challenge, vehicle 0.902, p<0.0001", "value": "0.814±0.014", "unit": "mm"}, {"measurement": "Mean ear thickness of KLH-induced ear", "setting": "[3]; 3 nmol/kg s.c., challenge day 11, 48 hrs post-challenge, vehicle 0.876, p=0.0001", "value": "0.814±0.019", "unit": "mm"}, {"measurement": "Mean ear thickness of KLH-induced ear", "setting": "[3]; 10 nmol/kg s.c., challenge day 11, 24 hrs post-challenge, vehicle 0.902, p<0.0001", "value": "0.796±0.043", "unit": "mm"}, {"measurement": "Mean ear thickness of KLH-induced ear", "setting": "[3]; 10 nmol/kg s.c., challenge day 11, 48 hrs post-challenge, vehicle 0.876, p=0.0001", "value": "0.794±0.036", "unit": "mm"}, {"measurement": "Mean ear thickness of KLH-induced ear", "setting": "[3]; 30 nmol/kg s.c., challenge day 11, 24 hrs post-challenge, vehicle 0.902, p<0.0001", "value": "0.754±0.017", "unit": "mm"}, {"measurement": "Mean ear thickness of KLH-induced ear", "setting": "[3]; 30 nmol/kg s.c., challenge day 11, 48 hrs post-challenge, vehicle 0.876, p<0.0001", "value": "0.736±0.03", "unit": "mm"}, {"measurement": "Mean ear thickness of KLH-induced ear", "setting": "[3]; 100 nmol/kg s.c., challenge day 11, 24 hrs post-challenge, vehicle 0.902, p<0.0001", "value": "0.751±0.009", "unit": "mm"}, {"measurement": "Mean ear thickness of KLH-induced ear", "setting": "[3]; 100 nmol/kg s.c., challenge day 11, 48 hrs post-challenge, vehicle 0.876, p<0.0001", "value": "0.731±0.016", "unit": "mm"}, {"measurement": "Mean ear thickness of KLH-induced ear", "setting": "[3]; [4]", "value": 0.736, "unit": "mm"}, {"measurement": "Mean ear thickness of KLH-induced ear", "setting": "[3]; 24 hrs post-challenge, day 6 post-treatment, 1 nmol/kg SC", "value": 0.872, "unit": "mm"}, {"measurement": "Mean ear thickness of KLH-induced ear", "setting": "[3]; 24 hrs post-challenge, day 6 post-treatment, 3 nmol/kg SC", "value": 0.814, "unit": "mm"}, {"measurement": "Mean ear thickness of KLH-induced ear", "setting": "[3]; [5]", "value": 0.796, "unit": "mm"}, {"measurement": "Mean ear thickness of KLH-induced ear", "setting": "[3]; 24 hrs post-challenge, day 6 post-treatment, 30 nmol/kg SC", "value": 0.754, "unit": "mm"}, {"measurement": "Mean ear thickness of KLH-induced ear", "setting": "[3]; [6]", "value": 0.751, "unit": "mm"}, {"measurement": "Mean ear thickness of KLH-induced ear", "setting": "[3]; [7]", "value": 0.671, "unit": "mm"}, {"measurement": "Mean ear thickness of KLH-induced ear", "setting": "[3]; 48 hrs post-challenge, day 7 post-treatment, 1 nmol/kg SC", "value": 0.854, "unit": "mm"}, {"measurement": "Mean ear thickness of KLH-induced ear", "setting": "[3]; 48 hrs post-challenge, day 7 post-treatment, 3 nmol/kg SC", "value": 0.814, "unit": "mm"}, {"measurement": "Mean ear thickness of KLH-induced ear", "setting": "[3]; [8]", "value": 0.794, "unit": "mm"}, {"measurement": "Mean ear thickness of KLH-induced ear", "setting": "[3]; 48 hrs post-challenge, day 7 post-treatment, 30 nmol/kg SC", "value": 0.736, "unit": "mm"}, {"measurement": "Mean ear thickness of KLH-induced ear", "setting": "[3]; [9]", "value": 0.731, "unit": "mm"}, {"measurement": "minimal dose to obtain effect", "setting": "[3]; KLH-induced DTH model, s.c.", "value": 3, "unit": "nmol/kg"}, {"measurement": "Mean ear thickness of KLH-induced ear", "setting": "[3]; s.c. day 6, dose not given, challenge day 7, 24 hrs post-challenge, vehicle 0.849, p<0.0001", "value": "0.736±0.026", "unit": "mm"}, {"measurement": "Mean ear thickness of KLH-induced ear", "setting": "[3]; s.c. day 6, dose not given, challenge day 7, 48 hrs post-challenge, vehicle 0.777, p<0.0001", "value": "0.671±0.022", "unit": "mm"}]}
